Reference: PubChem BioAssay (NCI)
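A five-concentration, 48-hour dose response in 96-well plates underlies each endpoint, interpolated linearly between surrounding concentrations. GI50 = concentration required for 50% inhibition of growth. TGI marks complete inhibition of growth.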

What was measured:
Test in all cases: inhibition of tumour cell growth, NCI panel, 48 h
[1] = tested on: 786-0 renal
[2] = tested on: A498 renal
[3] = tested on: A549 NSCLC
[4] = tested on: ACHN renal
[5] = tested on: BT-549 breast
[6] = tested on: CCRF-CEM leukemia
[7] = tested on: COLO 205 colon
[8] = tested on: DU-145 prostate
[9] = tested on: EKVX NSCLC
[10] = tested on: HCC-2998 colon
[11] = tested on: HCT-15 colon
[12] = tested on: HL-60(TB) leukemia
[13] = tested on: HOP-62 NSCLC
[14] = tested on: HOP-92 NSCLC
[15] = tested on: HS 578T breast
[16] = tested on: IGROV1 ovarian
[17] = tested on: K-562 leukemia
[18] = tested on: LOX IMVI melanoma
[19] = tested on: M14 melanoma
[20] = tested on: MDA-MB-231 breast
[21] = tested on: MDA-MB-435
[22] = tested on: MOLT-4 leukemia
[23] = tested on: NCI-H226 lung
[24] = tested on: NCI-H23 lung
[25] = tested on: NCI-H522 lung
[26] = tested on: NCI/ADR-RES ovarian
[27] = tested on: OVCAR-3 ovarian
[28] = tested on: OVCAR-4 ovarian
[29] = tested on: OVCAR-5 ovarian
[30] = tested on: OVCAR-8 ovarian
[31] = tested on: PC-3 prostate
[32] = tested on: RXF 393 renal
[33] = tested on: SF-268 CNS
[34] = tested on: SF-295 CNS
[35] = tested on: SK-MEL-2 melanoma
[36] = tested on: SK-MEL-28 melanoma
[37] = tested on: SK-OV-3 ovarian
[38] = tested on: SN12C renal
[39] = tested on: SNB-19 CNS
[40] = tested on: SR leukemia
[41] = tested on: T-47D breast
[42] = tested on: TK-10 renal
[43] = tested on: U251 CNS
[44] = tested on: UACC-257 melanoma
[45] = tested on: UACC-62 melanoma
[46] = tested on: UO-31 renal

Structure (SMILES): O=C1c2cccc(NCCN=Cc3cc(O)ccc3O)c2C(=O)c2c(NCCN=Cc3cc(O)ccc3O)cccc21
- GI50 [1]: 1.88 µM
- TGI [1]: 4.69 µM
- GI50 [2]: 1.41 µM
- TGI [2]: 3.1 µM
- GI50 [3]: 1.51 µM
- TGI [3]: 4.24 µM
- GI50 [4]: 2.05 µM
- TGI [4]: 8.93 µM
- GI50 [5]: 1.89 µM
- TGI [5]: 7.77 µM
- GI50 [6]: 0.351 µM
- TGI [6]: 1.63 µM
- GI50 [7]: 0.495 µM
- TGI [7]: 1.94 µM
- GI50 [8]: 1.39 µM
- TGI [8]: 5.43 µM
- GI50 [9]: 1.8 µM
- TGI [9]: 5.77 µM
- GI50 [10]: 1.39 µM
- TGI [10]: 2.93 µM
- GI50 [11]: 2.84 µM
- TGI [11]: 10.5 µM
- GI50 [12]: 1.63 µM
- TGI [12]: 4.19 µM
- GI50 [13]: 1.28 µM
- TGI [13]: 4.06 µM
- GI50 [14]: 1.29 µM
- TGI [14]: 4.87 µM
- GI50 [15]: 1.03 µM
- TGI [15]: 3.78 µM
- GI50 [16]: 1.19 µM
- TGI [16]: 4.59 µM
- GI50 [17]: 1.45 µM
- TGI [17]: 3.9 µM
- GI50 [18]: 0.762 µM
- TGI [18]: 2.25 µM
- GI50 [19]: 2.01 µM
- TGI [19]: 4.59 µM
- GI50 [20]: 0.877 µM
- TGI [20]: 2.25 µM
- GI50 [21]: 1.53 µM
- TGI [21]: 3.08 µM
- GI50 [22]: 0.319 µM
- TGI [22]: 1.46 µM
- GI50 [23]: 1.21 µM
- TGI [23]: 3.62 µM
- GI50 [24]: 1.44 µM
- TGI [24]: 3.49 µM
- GI50 [25]: 1.33 µM
- TGI [25]: 3.24 µM
- GI50 [26]: 13.4 µM
- TGI [26]: 35.9 µM
- GI50 [27]: 1.63 µM
- TGI [27]: 4.28 µM
- GI50 [28]: 0.573 µM
- TGI [28]: 2.64 µM
- GI50 [29]: 2.12 µM
- TGI [29]: 5.14 µM
- GI50 [30]: 0.884 µM
- TGI [30]: 3.21 µM
- GI50 [31]: 1.17 µM
- TGI [31]: 3.97 µM
- GI50 [32]: 1.43 µM
- TGI [32]: 2.96 µM
- GI50 [33]: 0.776 µM
- TGI [33]: 3.25 µM
- GI50 [34]: 1.36 µM
- TGI [34]: 4.24 µM
- GI50 [35]: 2.02 µM
- TGI [35]: 3.91 µM
- GI50 [36]: 1.77 µM
- TGI [36]: 3.66 µM
- GI50 [37]: 2.34 µM
- TGI [37]: 7.63 µM
- GI50 [38]: 0.737 µM
- TGI [38]: 3.9 µM
- GI50 [39]: 1.55 µM
- TGI [39]: 5.1 µM
- GI50 [40]: 0.601 µM
- TGI [40]: 3.1 µM
- GI50 [41]: 2.35 µM
- TGI [41]: 7.35 µM
- GI50 [42]: 2.21 µM
- TGI [42]: 5.8 µM
- GI50 [43]: 0.739 µM
- TGI [43]: 2.56 µM
- GI50 [44]: 3.1 µM
- TGI [44]: 10.8 µM
- GI50 [45]: 1.68 µM
- TGI [45]: 3.57 µM
- GI50 [46]: 1.71 µM
- TGI [46]: 6.13 µM
